Here are results for ten compounds from patent publication US12226412B2, “Heteroaryl-ketone fused azadecalin glucocorticoid receptor modulators” (Corcept Therapeutics, Inc., priority 2012, dated 2025).

SMILES strings stand for the structures. pKi: −log10 of the molar value. Like-named read-outs stand apart in the source and are kept apart here.

The target of one test is T1, human recombinant GR (Homo sapiens, UniProt P04150).
T1 construct: purchased PanVera P2812
T1 sequence (P04150 1-777): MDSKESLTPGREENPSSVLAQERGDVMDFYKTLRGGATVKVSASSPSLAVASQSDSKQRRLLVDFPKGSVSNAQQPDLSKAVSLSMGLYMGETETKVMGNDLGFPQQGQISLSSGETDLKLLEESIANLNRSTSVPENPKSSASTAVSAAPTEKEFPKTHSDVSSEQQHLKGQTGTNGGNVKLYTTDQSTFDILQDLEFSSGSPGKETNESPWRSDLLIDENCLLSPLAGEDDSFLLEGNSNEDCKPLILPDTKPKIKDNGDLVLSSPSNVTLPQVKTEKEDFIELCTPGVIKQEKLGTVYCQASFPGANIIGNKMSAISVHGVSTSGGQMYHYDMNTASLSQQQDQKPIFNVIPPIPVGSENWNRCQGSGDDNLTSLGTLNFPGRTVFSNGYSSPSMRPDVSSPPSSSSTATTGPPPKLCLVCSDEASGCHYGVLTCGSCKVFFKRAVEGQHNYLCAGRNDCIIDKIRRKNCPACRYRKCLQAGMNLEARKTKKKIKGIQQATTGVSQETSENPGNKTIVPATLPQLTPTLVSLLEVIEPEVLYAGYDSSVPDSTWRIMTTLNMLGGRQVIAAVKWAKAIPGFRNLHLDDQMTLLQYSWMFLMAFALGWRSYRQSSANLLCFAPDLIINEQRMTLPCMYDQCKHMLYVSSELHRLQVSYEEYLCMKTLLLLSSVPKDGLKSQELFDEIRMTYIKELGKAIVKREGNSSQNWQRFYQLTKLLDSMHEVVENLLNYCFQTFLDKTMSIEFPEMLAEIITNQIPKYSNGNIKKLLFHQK
Kind of test: Human glucocorticoid receptor (GR) fluorescence polarisation (FP) binding assay. In short, it runs like this:
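Competition fluorescence polarisation: 0.5 nM GS Red labelled glucocorticoid and 1 nM recombinant human GR with 8-point half-log compound series, 1% DMSO, 4 h room temperature, potassium phosphate pH 7.4 buffer with molybdate, EDTA, DTT. Affinity derived from the drop in polarisation, normalised to blank wells.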

Test [1] relates to induction of TAT by dexamethasone in HepG2 cells. Kind of test: HepG2 tyrosine aminotransferase (TAT) assay. Type of test: cell-based, human.
[2] abbreviates: human recombinant GR, fluorescence polarisation binding assay, read-out: GR binding.
Where [3] appears, read: HepG2 cells, challenge of 100 nM dexamethasone, Ki from IC50 by Cheng and Prusoff equation.

Turning to `CCCn1ncc(S(=O)(=O)N2CCC3=Cc4c(cnn4-c4ccc(F)cc4)C[C@]3(C(=O)c3cc(C(F)(F)F)ccn3)C2)n1` (single isomer, unassigned) [Example 11DC], the values for the pKi (on human recombinant GR (setting [2]); in test [1] (setting [3])) were 9.00 to 9.30 and above 7.70, respectively.

As to `N#Cc1cccc(S(=O)(=O)N2CCC3=Cc4c(cnn4-c4ccc(F)cc4)C[C@]3(C(=O)c3ccccn3)C2)c1` [Example 11G, (R)-3-((1-(4-fluorophenyl)-4a-picolinoyl-4a,5,7,8-tetrahydro-1H-pyrazolo[3,4-g]isoquinolin-6 (4H)-yl)sulfonyl)benzonitrile], the figures for the pKi (on human recombinant GR; in test [1]) were above 9.30 and above 7.70, respectively.

On to `CS(=O)(=O)c1cccc(S(=O)(=O)N2CCC3=Cc4c(cnn4-c4ccc(F)cc4)C[C@]3(C(=O)c3ccccn3)C2)c1` [Example 11Y, (R)-(1-(4-fluorophenyl)-6-((3-(methylsulfonyl)phenyl)sulfonyl)-4,4a,5,6,7,8-hexahydro-1H-pyrazolo[3,4-g]isoquinolin-4a-yl)(pyridin-2-yl)methanone], for which the pKi was above 9.30 on human recombinant GR (setting [2]) and 7.00 to 7.70 in test [1] (setting [3]).

Turning to `O=C(c1ccccn1)[C@]12Cc3cnn(-c4ccccc4)c3C=C1CCN(S(=O)(=O)c1ccc(Cl)c(Cl)c1)C2` [Example 15B, (R)-(6-((3,4-dichlorophenyl)sulfonyl)-1-phenyl-4,4a,5,6,7,8-hexahydro-1H-pyrazolo[3,4-g]isoquinolin-4a-yl)(pyridin-2-yl)methanone], the pKi on human recombinant GR (setting [2]) is above 9.30; in test [1] (setting [3]) it was above 7.70.

Regarding `Cc1c(S(=O)(=O)N2CCC3=Cc4c(cnn4-c4ccc(F)cc4)C[C@]3(C(=O)c3cc(C(F)(F)F)ccn3)C2)cnn1C` [Example 11BN, (R)-(6-((1,5-dimethyl-1H-pyrazol-4-yl)sulfonyl)-1-(4-fluorophenyl)-4,4a,5,6,7,8-hexahydro-1H-pyrazolo[3,4-g]isoquinolin-4a-yl)(4-(trifluoromethyl)pyridin-2-yl)methanone], the results for the pKi (at human recombinant GR (setting [2]); in test [1] (setting [3])) were above 9.30 and above 7.70, respectively.

In the case of `O=C(c1nccs1)[C@]12Cc3cnn(-c4ccc(F)cc4)c3C=C1CCN(S(=O)(=O)c1ccccc1)C2` [Example 12D, (R)-(1-(4-fluorophenyl)-6-(phenylsulfonyl)-4,4a,5,6,7,8-hexahydro-1H-pyrazolo [3,4-g]isoquinolin-4a-yl)(thiazol-2-yl)methanone], the pKi is above 9.30 at human recombinant GR (setting [2]) and above 7.70 in test [1] (setting [3]).

For the compound `CCn1cc(S(=O)(=O)N2CCC3=Cc4c(cnn4-c4ccc(F)cc4)C[C@]3(C(=O)c3ccccn3)C2)nn1` [Example 11CJ, (R)-(6-((1-ethyl-1H-1,2,3-triazol-4-yl)sulfonyl)-1-(4-fluorophenyl)-4,4a,5,6,7,8-hexahydro-1H-pyrazolo[3,4-g]isoquinolin-4a-yl)(pyridin-2-yl)methanone], the pKi on human recombinant GR (setting [2]) is above 9.30; in test [1] (setting [3]), 7.00 to 7.70.

Turning to `Cc1ccnc(C(=O)[C@]23Cc4cnn(-c5ccc(F)cc5)c4C=C2CCN(S(=O)(=O)c2cccc(C(F)(F)F)n2)C3)c1` [Example 11AE, (R)-(1-(4-fluorophenyl)-6-((6-(trifluoromethyl)pyridin-2-yl)sulfonyl)-4,4a,5,6,7,8-hexahydro-1H-pyrazolo[3,4-g]isoquinolin-4a-yl)(4-methylpyridin-2-yl)methanone], the results for the pKi (on human recombinant GR (setting [2]); in test [1] (setting [3])) were above 9.30 and above 7.70, respectively.

`O=C(c1nccs1)[C@]12Cc3cnn(-c4ccc(F)cc4)c3C=C1CCN(S(=O)(=O)c1ccc(F)c(C(F)(F)F)c1)C2` [Example 12I, (R)-(6-((4-fluoro-3-(trifluoromethyl)phenyl)sulfonyl)-1-(4-fluorophenyl)-4,4a,5,6,7,8-hexahydro-1H-pyrazolo[3,4-g]isoquinolin-4a-yl)(thiazol-2-yl)methanone]: the pKi was above 9.30 at human recombinant GR (setting [2]) and 7.00 to 7.70 in test [1] (setting [3]).

On to `CCCn1ncc(S(=O)(=O)N2CCC3=Cc4c(cnn4-c4ccc(F)cc4)C[C@]3(C(=O)c3nccs3)C2)n1` (single isomer, unassigned) [Example 12AA], for which the pKi on human recombinant GR (setting [2]) is above 9.30; in test [1] (setting [3]) it was 7.00 to 7.70.
